The target in the assay is T1, wildtype HIV-1 protease (Human immunodeficiency virus type 1 group M subtype B, UniProt P04585).
T1 construct: the wildtype HIV-1 protease (which was expressed in Escherichia coli); made in house; host or cells: Escherichia coli
The experiment in a line: Assay for inhibition of microbial expressed HIV protease (Pepcleav). Conditions: wild type HIV-1 protease expressed in E. coli, peptide substrate, pH 5.5; mean of at least two independent experiments; read-out: Pepcleav. It counts as biochemical. How it is done:
Assay for Inhibition of Microbial Expressed HIV Protease (“Pepcleav”)
Studies of the inhibition of the wildtype HIV-1 protease (which was expressed in Escherichia coli) were carried out with a peptide substrate [Val-Ser-Gln-Asn-(βnaphthyl)Ala-Pro-Ile-Val (SEQ ID NO:1)]. The inhibitor is first preincubated with the HIV-1 protease (wild type) enzyme in assay buffer (50 mM sodium acetate, pH 5.5, 100 mM NaCl, and 0.1% BSA) for 30 minutes at room temperature. Substrate is added to 400 micromolar in a total volume of 20 microliters containing 20 picomolar HIV-1 protease (final) and the reaction is incubated for 1 hour at 30° C. The reaction is quenched with the addition of formic acid and indinavir to 0.012% and 150 nM final concentrations, respectively. The product formation is determined after separation of product and substrate on a Zorbax Eclipse XDB-C 18 column connected to an API 4000 mass spectrometer (Applied Biosystems) with multiple reaction monitoring (transitions were 644.5/428.9 and 615.4/422.2 (M1/M3) for product and indinavir respectively). The extent of inhibition of the reaction is determined from the peak area of the products.
For `COC(=O)N[C@H](C(=O)Nc1ccccc1CC[C@@H]1CN[C@H](COC(=O)NCC(F)F)CO1)C(c1ccccc1)c1ccccc1` [Example 24, methyl N-[(1S)-1-benzhydryl-2-[[2-[2-[(2R,5S)-5-(2,2-difluoroethylcarbamoyloxymethyl)morpholin-2-yl]ethyl]phenyl]amino]-2-oxo-ethyl]carbamate], the IC50 came out at 0.085 µM.

As for `CCN(CC)C(=O)OC[C@@H]1CO[C@H](CCc2ccccc2NC(=O)[C@@H](NC(=O)OC)C(c2ccccc2)c2ccccc2)CN1` [Example 25], the IC50 stood at 0.12 µM.

On to `COC(=O)N[C@H](C(=O)Nc1ccccc1CC[C@@H]1CN[C@H](COC(=O)N(C)C)CO1)C(c1ccccc1)c1ccccc1` [Example 26, methyl N-[(1S)-1-benzhydryl-2-[[2-[2-[(2R,5S)-5-(dimethylcarbamoyloxymethyl)morpholin-2-yl]ethyl]phenyl]amino]-2-oxo-ethyl]carbamate], for which the IC50 turned out to be 0.21 µM.

Consider `COC(=O)N[C@H](C(=O)Nc1ccccc1CC[C@@H]1CN[C@H](COC(=O)N2CCCC2)CO1)C(c1ccccc1)c1ccccc1` [Example 27, [(3S,6R)-6-[2-[2-[[(2S)-2-(methoxycarbonylamino)-3,3-diphenyl-propanoyl]amino]phenyl]ethyl]morpholin-3-yl]methyl pyrrolidine-1-carboxylate], for which the IC50 was 0.18 µM.

On to `COC(=O)N[C@H](C(=O)Nc1ccccc1CC[C@@H]1CN[C@H](COC(=O)NCCN(C)C)CO1)C(c1ccccc1)c1ccccc1` [Example 28, methyl N-[(1S)-1-benzhydryl-2-[[2-[2-[(2R,5S)-5-(2-dimethylaminoethylcarbamoyloxymethyl)morpholin-2-yl]ethyl]phenyl]amino]-2-oxo-ethyl]carbamate], for which the IC50 stood at 0.25 µM.

Consider `COC(=O)N[C@H](C(=O)Nc1ccccc1CC[C@@H]1CN[C@H](COC(=O)N[C@H]2COC[C@@H]2F)CO1)C(c1ccccc1)c1ccccc1` [Example 29, N-[2-(2-{(2R,5S)-5-[({[(3S,4R)-4-fluorotetrahydrofuran-3-yl]carbamoyl}oxy)methyl]morpholin-2-yl}ethyl)phenyl]-Nα-(methoxycarbonyl)-β-phenyl-L-phenylalaninamide], for which the IC50 worked out at 0.018 µM.

As to `CNC(=O)OC[C@@H]1CO[C@H](CCc2ccccc2NC(=O)[C@@H](NC(=O)OC)C(c2ccccc2)c2ccccc2)CN1` [Example 30], the IC50 amounted to 0.032 µM.

Regarding `COC(=O)N[C@H](C(=O)Nc1ccccc1CC[C@@H]1CN[C@H](COC(=O)NC(C2CC2)C(F)(F)F)CO1)C(c1ccccc1)c1ccccc1` (stereo partly drawn) [Example 31, N-(2-{2-[(2R,5S)-5-({[(1-cyclopropyl-2,2,2 trifluoroethyl)carbamoyl]oxy}methyl)morpholin-2-yl]ethyl}phenyl)-Nα-(methoxycarbonyl)-β-phenyl-L-phenylalaninamide], the IC50 is 0.029 µM.

Take `COC(=O)N[C@H](C(=O)Nc1ncccc1CC[C@@H]1CN[C@H](COC(=O)NCc2ccc(F)cc2)CO1)C(c1ccccc1)c1ccccc1` [Example 32, N-(3-{2-[(2R,5S)-5-({[(4-fluorobenzyl)carbamoyl]oxy}methyl)morpholin-2-yl]ethyl}pyridin-2-yl)-Nα-(methoxycarbonyl)-β-phenyl-L-phenylalaninamide]: the IC50 worked out at 0.021 µM.

For `COC(=O)N[C@H](C(=O)Nc1cnccc1CC[C@@H]1CN[C@H](COC(=O)NCc2ccc(F)cc2)CO1)C(c1ccccc1)c1ccccc1` [Example 33, N-(4-{2-[(2R,5S)-5-({[(4-fluorobenzyl)carbamoyl]oxy}methyl)morpholin-2-yl]ethyl}pyridin-3-yl)-Nα-(methoxycarbonyl)-β-phenyl-L-phenylalaninamide], the IC50 stood at 0.0057 µM.

In the case of `COC(=O)N[C@H](C(=O)Nc1cnccc1CC[C@@H]1CN[C@H](COC(=O)NCC(F)(F)F)CO1)C(c1ccccc1)c1ccccc1` [Example 34, Nα-(methoxycarbonyl)-β-phenyl-N-(4-{2-[(2R,5S)-5-({[(2,2,2-trifluoroethyl)carbamoyl]oxy}methyl)morpholin-2-yl]ethyl}pyridin-3-yl)-L-phenylalaninamide], the IC50 is 0.014 µM.

For the origin of these results see US9315475B2 (MERCK SHARP & DOHME CORP., priority 2011, dated 2016).
